Earlier results, collected in US11220530B2, “Nanospheres of SEC14-like proteins and cognate ligands” (UNIVERSITÄT BERN, priority 2016, dated 2022).

Target: Cellular retinaldehyde-binding protein (CRALBP) (Bos taurus, UniProt P10123)
Details: for Kd: cited from Saari and Bredberg, J Biol Chem 1987, read-out: Kd (affinity for CRALBP)

Cellular retinaldehyde-binding protein (CRALBP), sequence (P10123 whole entry): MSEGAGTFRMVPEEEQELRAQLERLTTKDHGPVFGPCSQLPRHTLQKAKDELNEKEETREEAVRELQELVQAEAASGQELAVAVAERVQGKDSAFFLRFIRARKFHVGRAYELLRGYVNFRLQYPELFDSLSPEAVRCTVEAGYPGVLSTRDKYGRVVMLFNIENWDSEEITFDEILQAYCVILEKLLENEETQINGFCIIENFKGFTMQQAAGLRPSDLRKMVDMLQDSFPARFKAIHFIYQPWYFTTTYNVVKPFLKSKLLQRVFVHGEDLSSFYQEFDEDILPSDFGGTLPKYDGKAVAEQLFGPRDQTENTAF

In the case of `CC1=C(/C=C/C(C)=C\C=C\C(C)=C\C=O)C(C)(C)CCC1` [9-cis-retinal], the Kd is given as 0.053 µM.

For `CC1=C(/C=C/C(C)=C/C=C/C(C)=C/C=O)C(C)(C)CCC1` [11-cis-retinal], the Kd is listed as 0.02 µM.

For `CC1=C(/C=C/C(C)=C/C=C\C(C)=C\CO)C(C)(C)CCC1` [11-cis-retinol], the Kd is listed as 0.06 µM.

In the case of `CC1=C(/C=C/C(C)=C/C=C/C(C)=C/C=O)C(C)(C)CCC1` [13-cis], the “binding to CRALBP” value (same cited study) is listed as “does not bind”.
